Experimental data as given in patent publication US10875898B2, “Bioactive protein, use thereof and method for its production” (Koppert B.V., priority 2014, dated 2020).

What was measured:
Lotus japonicus [1] = test: Rhizobium lotii on Lotus japonicus in vitro system, plant growth and nodule density; format: in vivo; conditions: HYTLO1 0.07 μM, 6PP 0.002 μM, 4 weeks after seeding
Protocol: Wt+Rhz=treatment with R. loti, Wt-Rhz without R. loti. (D) Growth measured after 4 weeks, in the absence (cont) or presence of Rhizoba R. loti ((+) Rhiz). The purified molecules were added to the sterile MS media and poured into Petri dishes. Data were recorded 4 weeks after seeding of L. japonicus.
FIG. 18. […] (HYT=HYTLO1 at 0.07 μM, 6PP at 0.002 μM, HA=Harzianic Acid at 0.001 μM). Wt=control with R. loti without metabolites. The purified molecules were added to the sterile MS media and poured into Petri dishes. Average number of nodules per cm of root are indicated. Data were recorded 4 weeks after seeding of L. japonicus.
In order to test the effect of HYTLO1, as well as of the secondary metabolites HA and 6PP on the growth promotion activity of Rhizobia, such as Rhizobium sp., on legumimosae plants, we used a standard Rhizobium lotii on Lotus japonicus in vitro system (Barbulova et al., 2005, Functional Plant Biology, 32:529-536). Plant growth and nodule density on the roots were scored four weeks after seeding by comparing untreated controls and the various treatments.

tomato plants = test: tomato plant growth, watering and spraying; format: in vivo; conditions: 0.01 μM, once per week for one month; vs T. harzianum T22, GERMON E and untreated control
Excerpt: FIG. 10: Effect of HYTLO1 on tomato plant growth as compared to treatment with T. harzianum strain T22 or the Commercial product GERMON E (G-E) base on the auxin 1-naphthaleneacetic acid, commercialized by L. Gobbi, Italy. (A) Growth increase of root and stem of HYTLO1 vs. water control, GERMON E or T22, 10 days after treatment. (B) Increase of root development (HYTLO1 treatment on the left, untreated control on the right), (C) Effect of HYTLO1 on plant size compared to T22. (D) Effect of HYTLO1 on root development compared to water control, T22, GERMON E (also in combination with HYTLO1). HYTLO1 was applied at final concentration in the soil at 10^−8 M.
FIG. 11: Effect of purified HYTLO1 on tomato plants, applied by drench on the roots or by spraying on the leaves. For the irrigation, 50 ml of a solution containing 0.072 μg/ml of HYTLO1 (0.01 μM) were applied for each pot containing 1 litre of soil and 2 tomato plants, for a total of 4 applications. For foliar application, 20 ml of a solution containing 0.072 μg/ml (0.01 μM) of HYTLO1 were sprayed for each pot containing 2 tomato plants for a total of 4 applications. […]

Alternaria spp. = test: spore germination in Potato Dextrose Broth; format: cell-based; conditions: 5 μM HYTLO1, 25° C., 24 hours, PDB
Protocol: (§1) FIG. 3: HYTLO1 antifungal activity. Spore of the pathogens Botrytis cinerea and Alternaria spp. and of the biocontrol agent Trichoderma harzianum strain MK1-KV966 were germinated at 25° C. for 24 hours in Potato Dextrose Broth (PDB) containing 5 μM of HYTLO1 and compared with those germinated in PDB plus the same solvent as the control.

Botrytis cinerea = test: spore germination in Potato Dextrose Broth; format: cell-based; conditions: 5 μM HYTLO1, 25° C., 24 hours, PDB
Protocol: as §1

Cucumis sativus = test: seed germination of cucumber on MS agar; format: in vivo; conditions: 10^−8 M in agar medium
Protocol: (§2) FIG. 12: Effect of purified HYTLO1 on the growth of Arabidopsis (A), percentage seed germination of cucumber (B) and plantlet development of Lotus japonicus (C). A: Arabidopsis thaliana (Columbia-0: Col-0) seeds were sown in Levington's F2 compost plus sand (JFC Munro, Devon; http://www.jfcmonro.com) and chilled for 2 days at 4° C. Plants were grown under short-day conditions (10 h light) in a controlled environment chamber, at 22° C. during the day and 18° C. at night with 60% relative humidity for 5-6 weeks before transplanting. Ten ml of sterile solutions of HYTLO1 were drenched every two days at concentrations 0.072 μg/ml (0.01 μM) for one month in each pot containing 100 ml of soil and 1 Arabidopsis plant. Untreated plants were used as controls. B: Sterile cucumber seeds were placed on magenta box containing half-strength Murashige and Skoog salt (MS) medium (ICN Biomedicals) containing 1% agar and 1.5% sucrose, adjusted to pH 5.7, and vernalized for 2 days at 4° C. in the absence of light. A sterile solutions of HYTLO1 was added to the substrate at final concentration of 10^−8 M before the solidification of agar. C: The same concentration of HYTLO1 was used in the agarized medium used for the L. japonicus test. […]

Lotus japonicus [2] = test: plantlet development of Lotus japonicus; format: in vivo; conditions: 10^−8 M in agarized medium
Protocol: as §2

B. cinerea = test: infection of tomato leaves by the pathogen B. cinerea; format: in vivo, Botrytis cinerea; conditions: 10 μL applied to tomato leaf 2 hours before B. cinerea spores; up to 72 hr after inoculation
Protocol: FIG. 8: Effect of purified HYTLO1 application on the infection of tomato leaves by the pathogen B. cinerea. 10 μL of a solution of HYTLO1 were applied to tomato leaves and 2 hours later 10 μL of a B. cinerea spore suspension 1×10^6/ml were applied on the same spot. The measures were taken 72 hours post inoculation. The standard deviation bars were obtained from at least three different experiments, with five replicates and a total of 15 treated leaves per treatment. In order to determine if purified HYTLO1 is able to protect the plant from foliar infection by a pathogenic fungus, the protein was tested on tomato grown-up plants against Botrytis cinerea.

HYTLO1: about 7 KDa Type II hydrophobin protein from Trichoderma longibrachiatum strain MK1, 71 aa, SEQ ID NO: 1
plant growth promotion effect of Rhizobia on Lotus japonicus (Lotus japonicus [1]; HA 0.001 μM in MS media): enhances the plant growth promotion effect of Rhizobia
nodule formation (number of nodules per cm of root) (Lotus japonicus [1]; HA 0.001 μM, with R. loti): Enhancement of nodule formation
growth parameters (plant height and length, root length and weight, number of leaves, stem diameter and weight) (tomato plants): increased all of the growth parameters
effect on germination of spores (Alternaria spp.): direct inhibitory effect
effect on germination of spores (Botrytis cinerea): direct inhibitory effect
growth promotion effect (percentage seed germination) (Cucumis sativus): confirmed
growth promotion effect (plantlet development) (Lotus japonicus [2]): confirmed
concentration of HYTLO1 that significantly reduced the size of the necrotic area (B. cinerea): above 1.25 μM
